One data set concerns the target T1, human TLR8 (Homo sapiens, UniProt Q9NR97).
T1 construct: host or cells: HEK293 NF-kB reporter cells
T1 sequence (Q9NR97 27-1041): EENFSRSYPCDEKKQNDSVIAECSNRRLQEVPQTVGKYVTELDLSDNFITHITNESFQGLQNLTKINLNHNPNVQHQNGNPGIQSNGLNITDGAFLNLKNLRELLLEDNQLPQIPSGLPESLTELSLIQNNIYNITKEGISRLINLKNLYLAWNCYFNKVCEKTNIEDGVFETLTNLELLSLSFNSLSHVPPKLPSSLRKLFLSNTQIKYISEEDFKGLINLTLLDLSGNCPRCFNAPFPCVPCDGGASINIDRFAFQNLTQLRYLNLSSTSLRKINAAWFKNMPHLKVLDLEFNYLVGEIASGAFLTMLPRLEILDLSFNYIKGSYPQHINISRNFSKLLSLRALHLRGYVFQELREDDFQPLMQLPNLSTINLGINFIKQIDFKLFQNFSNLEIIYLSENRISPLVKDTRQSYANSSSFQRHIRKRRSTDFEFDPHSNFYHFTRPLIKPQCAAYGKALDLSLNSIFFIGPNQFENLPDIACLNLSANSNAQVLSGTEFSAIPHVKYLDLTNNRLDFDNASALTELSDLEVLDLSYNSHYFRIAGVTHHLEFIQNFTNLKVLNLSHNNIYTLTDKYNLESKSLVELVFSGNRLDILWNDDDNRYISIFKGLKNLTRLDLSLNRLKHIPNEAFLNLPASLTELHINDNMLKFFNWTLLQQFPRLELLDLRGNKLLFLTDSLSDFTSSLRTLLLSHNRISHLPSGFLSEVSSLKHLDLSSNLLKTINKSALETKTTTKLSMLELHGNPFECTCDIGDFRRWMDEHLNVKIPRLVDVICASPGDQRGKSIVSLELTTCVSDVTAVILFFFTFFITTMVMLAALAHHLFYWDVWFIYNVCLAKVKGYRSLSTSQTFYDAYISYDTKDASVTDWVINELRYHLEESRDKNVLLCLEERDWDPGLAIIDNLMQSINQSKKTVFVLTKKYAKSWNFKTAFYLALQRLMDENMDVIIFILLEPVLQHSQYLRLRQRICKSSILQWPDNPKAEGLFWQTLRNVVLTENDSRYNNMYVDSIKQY
The data set can be described thus: HEK Reporter Assay, HEK293 cells expressing human TLR8. The data set is classed as cell-based. The settings on record: for EC50: HEK293 NFKB reporter cells expressing human TLR8, read-out: HEK293 hTLR8 EC50. Here is the method:
(§1) Activity against HEK293 NFKB reporter cells expressing human TLR7 or human TLR8 was measured according to Example 202.
(§2) Example 202 HEK Reporter Assay
(§3) HEK293 reporter cells expressing human TLR7 or human TLR8 were purchased from Invivogen and vendor protocols were followed for cellular propagation and experimentation. Briefly, cells were grown to 80-85% confluence at 5% CO2 in DMEM supplemented with 10% FBS, Zeocin, and Blasticidin. Cells were then seeded in 96-well flat plates at 4×10^4 cells/well with substrate containing HEK detection medium and immunostimulatory molecules.

The target in the next data set is T2, human TLR7 (Homo sapiens, UniProt Q9NYK1).
T2 construct: host or cells: HEK293 NF-kB reporter cells
T2 sequence (Q9NYK1 27-1049): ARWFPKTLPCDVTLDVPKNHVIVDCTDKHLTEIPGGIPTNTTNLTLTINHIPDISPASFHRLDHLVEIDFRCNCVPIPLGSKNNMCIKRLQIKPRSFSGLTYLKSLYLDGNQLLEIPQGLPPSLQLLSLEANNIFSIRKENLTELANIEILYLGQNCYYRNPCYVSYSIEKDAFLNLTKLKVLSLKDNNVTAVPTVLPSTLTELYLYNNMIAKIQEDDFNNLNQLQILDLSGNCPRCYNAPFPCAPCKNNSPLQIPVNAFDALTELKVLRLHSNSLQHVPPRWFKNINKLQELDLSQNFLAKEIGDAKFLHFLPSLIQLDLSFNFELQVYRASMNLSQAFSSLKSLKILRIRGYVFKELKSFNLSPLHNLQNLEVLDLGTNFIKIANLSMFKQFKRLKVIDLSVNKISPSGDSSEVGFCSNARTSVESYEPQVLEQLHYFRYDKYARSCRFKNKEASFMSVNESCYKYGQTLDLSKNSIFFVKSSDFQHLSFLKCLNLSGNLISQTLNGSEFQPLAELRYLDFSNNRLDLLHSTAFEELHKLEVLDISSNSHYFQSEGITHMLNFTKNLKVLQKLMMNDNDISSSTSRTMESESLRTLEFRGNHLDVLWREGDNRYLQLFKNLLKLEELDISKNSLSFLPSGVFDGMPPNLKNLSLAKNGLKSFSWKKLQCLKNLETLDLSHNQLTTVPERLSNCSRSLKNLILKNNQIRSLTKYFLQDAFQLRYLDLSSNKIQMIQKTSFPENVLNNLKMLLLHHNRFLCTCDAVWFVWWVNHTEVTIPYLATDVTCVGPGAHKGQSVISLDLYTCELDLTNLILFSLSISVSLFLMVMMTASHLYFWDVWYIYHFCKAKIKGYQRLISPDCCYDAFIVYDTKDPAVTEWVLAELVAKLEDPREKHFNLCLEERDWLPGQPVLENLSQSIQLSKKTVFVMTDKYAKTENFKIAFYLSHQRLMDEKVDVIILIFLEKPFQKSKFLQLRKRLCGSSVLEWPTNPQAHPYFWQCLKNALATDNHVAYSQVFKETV
The data set can be described thus: HEK Reporter Assay, HEK293 cells expressing human TLR7. Type of data set: cell-based. The settings on record: for EC50: HEK293 NFKB reporter cells expressing human TLR7, read-out: HEK293 hTLR7 EC50; for TLR7 activity relative to known TLR7 adjuvant C-1: HEK human TLR7 activity at 24 hours, FIG. 1. Here is the method: as §1, §2, §3

Data set [1] can be described thus: Hydrophilicity comparison with comparator C-2. Type of data set: physicochemical.

Molecules are shown by their SMILES.

With `CCCN(CCC)C(=O)C1=Cc2c(cnn2Cc2ccc(CNC(=O)OC(C)(C)C)cc2)N=C(N)C1` [PAZ-13, tert-butyl N-[[4-[[5-amino-7-(dipropylcarbamoyl)-6H-pyrazolo[4,3-b]azepin-1-yl]methyl]phenyl]methyl]carbamate], the EC50 on human TLR8 stood at 3.84 µM; on human TLR7, 0.881 µM.

As to `CCCN(CCCNC(=O)OC1CCC1)C(=O)C1=Cc2c(cnn2CCCCCN)N=C(N)C1` [PAZ-15, cyclobutyl (3-(5-amino-1-(5-aminopentyl)-N-propyl-1,6-dihydropyrazolo[4,3-b]azepine-7-carboxamido)propyl)carbamate], the EC50 on human TLR8 and on human TLR7 was over 9 µM each time.

As for `CCCN(CCCNC(=O)CC(C)(C)C)C(=O)C1=Cc2c(cnn2CCCCCNC(=O)OC(C)(C)C)N=C(N)C1` [PAZ-8, tert-butyl N-[5-[5-amino-7-[3-(3,3-dimethylbutanoylamino)propyl-propyl-carbamoyl]-6H-pyrazolo[4,3-b]azepin-1-yl]pentyl]carbamate], the EC50 on human TLR8 was over 9 µM; on human TLR7, 2.75 µM.

Consider `CCCN(CCCNC(=O)CC(C)(C)C)C(=O)C1=Cc2nn(CCCCCNC(=O)OC(C)(C)C)cc2N=C(N)C1` [PAZ-10, tert-butyl N-[5-[5-amino-7-[3-(3,3-dimethylbutanoylamino)propyl-propyl-carbamoyl]-6H-pyrazolo[4,3-b]azepin-2-yl]pentyl]carbamate], for which the EC50 was 3.23 µM on human TLR8 and over 9 µM on human TLR7.

Consider `CCCN(CCC)C(=O)C1=Cc2c(cnn2Cc2ccc(CN)cc2)N=C(N)C1` [PAZ-14, 5-amino-1-[[4-(aminomethyl)phenyl]methyl]-N,N-dipropyl-6H-pyrazolo[4,3-b]azepine-7-carboxamide], for which the EC50 at human TLR8 was over 9 µM; at human TLR7, 5.59 µM.

As to `CCCN(CCC)C(=O)C1=Cc2nn(CCCCCNC(=O)OC(C)(C)C)cc2N=C(N)C1` [PAZ-5], the EC50 on human TLR8 and on human TLR7 was over 9 µM throughout.

As for `CCCN(CCC)C(=O)C1=Cc2c(cnn2CCCCCNC(=O)OC(C)(C)C)N=C(N)C1` [PAZ-4, tert-butyl N-[5-[5-amino-7-(dipropylcarbamoyl)-6H-pyrazolo[4,3-b]azepin-1-yl]pentyl]carbamate], the figures for the EC50 on human TLR8 and on human TLR7 were 3.1 µM and 2.92 µM, respectively.

On to `CCCN(CCC)C(=O)C1=Cc2c(cnn2C)N=C(N)C1` [PAZ-1, 5-amino-1-methyl-N,N-dipropyl-1,6-dihydropyrazolo[4,3-b]azepine-7-carboxamide], for which the EC50 on human TLR8 was 4.15 µM; on human TLR7 it was over 9 µM.

For the compound `CCCN(CCCNC(=O)CC(C)(C)C)C(=O)C1=Cc2nn(CCCCCN)cc2N=C(N)C1` [PAZ-9, 5-amino-2-(5-aminopentyl)-N-[3-(3,3-dimethylbutanoylamino)propyl]-N-propyl-6H-pyrazolo[4,3-b]azepine-7-carboxamide], the concentration for a half-maximal effect (EC50) at human TLR8 and at human TLR7 was over 9 µM in each case.

As for `CCCN(CCC)C(=O)C1=Cc2nn(CCCCCN)cc2N=C(N)C1` [PAZ-3], the EC50 on human TLR8 and on human TLR7 was over 9 µM each time.

On to `CCCN(CCC)C(=O)C1=Cc2nn(C)cc2N=C(N)C1` [PAZ-6, 5-amino-2-methyl-N,N-dipropyl-6H-pyrazolo[4,3-b]azepine-7-carboxamide], for which the values for the EC50 at human TLR8 and on human TLR7 were 4.05 µM and over 9 µM, respectively.

As for `CCCN(OCC)C(=O)C1=Cc2c(cnn2CCCCCNC(=O)OC(C)(C)C)N=C(N)C1` [PAZ-11, tert-butyl N-[5-[5-amino-7-[ethoxy(propyl)carbamoyl]-6H-pyrazolo[4,3-b]azepin-1-yl]pentyl]carbamate], the “hydrophilicity relative to C-2” value in data set [1] is listed as “improved hydrophilicity”. The EC50 on human TLR8 is 1.49 µM. Also, at human TLR8 (HEK human TLR8 activity at 24 hours, FIG. 2), the “TLR8 potency relative to known TLR8 adjuvant C-2” value is recorded as “better TLR8 potency”. For the same compound, on human TLR7, the EC50 turned out to be 0.795 µM and the “TLR7 activity relative to known TLR7 adjuvant C-1” value is reported as “comparable TLR7 activity”.

Take `CCCN(CCC)C(=O)C1=Cc2c(cnn2CCCCCN)N=C(N)C1` [PAZ-2, 5-amino-1-(5-aminopentyl)-N,N-dipropyl-6H-pyrazolo[4,3-b]azepine-7-carboxamide]: on human TLR8, the EC50 was 2.96 µM. Further, on human TLR7, the EC50 was over 9 µM and the “TLR7 activity relative to known TLR7 adjuvant C-1” value is “comparable TLR7 activity”.

For `CCCN(CCCNC(=O)CC(C)(C)C)C(=O)C1=Cc2c(cnn2CCCCCN)N=C(N)C1` [PAZ-7, 5-amino-1-(5-aminopentyl)-N-[3-(3,3-dimethylbutanoylamino)propyl]-N-propyl-6H-pyrazolo[4,3-b]azepine-7-carboxamide], the EC50 on human TLR8 and at human TLR7 was over 9 µM throughout.

With `CCCN(CCC)C(=O)C1=Cc2ccc(-c3cccc(S(=O)(=O)N4CC(CO)C4)c3)cc2N=C(N)C1` [C-2, reference compound], the results for the EC50 at human TLR8 and on human TLR7 were 1.59 µM and over 9 µM, respectively.

With `CCCN(OCC)C(=O)C1=Cc2c(cnn2CCCCCN)N=C(N)C1` [PAZ-12, 5-amino-1-(5-aminopentyl)-N-ethoxy-N-propyl-6H-pyrazolo[4,3-b]azepine-7-carboxamide], the concentration giving a half-maximal response (EC50) was determined as 0.29 µM on human TLR8 and 3.21 µM at human TLR7.
